C[C@@H]1OC(=O)[C@H](C)OC1=O
solubility (mole fraction) (in acetone, 278.95 K): 0.217
solubility (mole fraction) (in acetone, 286.95 K): 0.247
solubility (mole fraction) (in acetone, 290.65 K): 0.265
solubility (mole fraction) (in acetone, 294.65 K): 0.283
solubility (mole fraction) (in acetone, 299.35 K): 0.307
solubility (mole fraction) (in acetone, 304.95 K): 0.335
solubility (mole fraction) (in acetone, 309.15 K): 0.36
solubility (mole fraction) (in acetone, 314.35 K): 0.394
solubility (mole fraction) (in acetone, 319.05 K): 0.423
solubility (mole fraction) (in acetone, 323.35 K): 0.455
solubility (mole fraction) (in acetone, 328.25 K): 0.49
solubility (mole fraction) (in ethanol, 283.95 K): 0.00281
solubility (mole fraction) (in ethanol, 288.65 K): 0.00423
solubility (mole fraction) (in ethanol, 295.35 K): 0.00878
solubility (mole fraction) (in ethanol, 299.95 K): 0.0135
solubility (mole fraction) (in ethanol, 303.45 K): 0.031
solubility (mole fraction) (in ethanol, 310.15 K): 0.044
solubility (mole fraction) (in ethanol, 314.65 K): 0.0569
solubility (mole fraction) (in ethanol, 319.95 K): 0.081
solubility (mole fraction) (in ethanol, 325.15 K): 0.115
solubility (mole fraction) (in ethanol, 329.25 K): 0.161
solubility (mole fraction) (in ethanol, 333.25 K): 0.258
solubility (mole fraction) (in ethanol, 336.45 K): 0.337
solubility (mole fraction) (in ethyl acetate, 277.05 K): 0.115
solubility (mole fraction) (in ethyl acetate, 282.35 K): 0.131
solubility (mole fraction) (in ethyl acetate, 287.65 K): 0.147
solubility (mole fraction) (in ethyl acetate, 296.15 K): 0.178
solubility (mole fraction) (in ethyl acetate, 301.65 K): 0.199
solubility (mole fraction) (in ethyl acetate, 305.15 K): 0.221
solubility (mole fraction) (in ethyl acetate, 308.35 K): 0.242
solubility (mole fraction) (in ethyl acetate, 313.15 K): 0.272
solubility (mole fraction) (in ethyl acetate, 318.25 K): 0.311
solubility (mole fraction) (in ethyl acetate, 324.95 K): 0.369
solubility (mole fraction) (in ethyl acetate, 331.35 K): 0.436
solubility (mole fraction) (in ethyl acetate, 336.35 K): 0.491
solubility (mole fraction) (in isopropanol, 279.65 K): 0.00822
solubility (mole fraction) (in isopropanol, 290.95 K): 0.0131
solubility (mole fraction) (in isopropanol, 295.65 K): 0.017
solubility (mole fraction) (in isopropanol, 299.95 K): 0.0208
solubility (mole fraction) (in isopropanol, 304.15 K): 0.0256
solubility (mole fraction) (in isopropanol, 309.35 K): 0.0338
solubility (mole fraction) (in isopropanol, 314.15 K): 0.0455
solubility (mole fraction) (in isopropanol, 318.65 K): 0.0605
solubility (mole fraction) (in isopropanol, 323.65 K): 0.0854
solubility (mole fraction) (in isopropanol, 329.15 K): 0.127
solubility (mole fraction) (in isopropanol, 333.15 K): 0.177
solubility (mole fraction) (in methanol, 278.25 K): 0.0153
solubility (mole fraction) (in methanol, 282.15 K): 0.0221
solubility (mole fraction) (in methanol, 284.15 K): 0.0231
solubility (mole fraction) (in methanol, 290.25 K): 0.0302
solubility (mole fraction) (in methanol, 294.25 K): 0.0373
solubility (mole fraction) (in methanol, 298.85 K): 0.0474
solubility (mole fraction) (in methanol, 302.25 K): 0.0614
solubility (mole fraction) (in methanol, 308.15 K): 0.0895
solubility (mole fraction) (in methanol, 311.45 K): 0.116
solubility (mole fraction) (in methanol, 315.75 K): 0.126
solubility (mole fraction) (in methanol, 322.25 K): 0.204
solubility (mole fraction) (in methanol, 332.55 K): 0.282
solubility (mole fraction) (in methanol, 333.15 K): 0.337
solubility (mole fraction) (in toluene, 278.55 K): 0.0128
solubility (mole fraction) (in toluene, 283.65 K): 0.0211
solubility (mole fraction) (in toluene, 286.95 K): 0.0231
solubility (mole fraction) (in toluene, 291.15 K): 0.029
solubility (mole fraction) (in toluene, 298.35 K): 0.0371
solubility (mole fraction) (in toluene, 303.15 K): 0.0436
solubility (mole fraction) (in toluene, 308.15 K): 0.0666
solubility (mole fraction) (in toluene, 315.95 K): 0.0854
solubility (mole fraction) (in toluene, 321.65 K): 0.108
solubility (mole fraction) (in toluene, 324.25 K): 0.135
solubility (mole fraction) (in toluene, 326.95 K): 0.157
